ChEMBL document CHEMBL2407006, “Selective cytotoxic effects on human breast carcinoma of new methoxylated flavonoids from Euryops arabicus grown in Saudi Arabia” (Eur J Med Chem, 2013)
Active and inactive are the calls of the source. No cut-off for these calls is given here.

Experiments:
HepG2 = assay: Antiproliferative activity against human HepG2 cells after 48 hrs by MTT assay; assay type: functional, cell-based; conditions: HepG2, 48 h
WI-38 = assay: Antiproliferative activity against human WI38 cells after 48 hrs by MTT assay; assay type: functional, cell-based; conditions: WI-38, 48 h
Vero = assay: Antiproliferative activity against african green monkey Vero cells after 48 hrs by MTT assay; assay type: functional, cell-based; conditions: Chlorocebus sabaeus
MCF7 [1] = assay: Antiproliferative activity against human MCF7 cells after 48 hrs by MTT assay; assay type: functional, cell-based; conditions: MCF7, 48 h
PBL = assay: Immunostimulant activity in PHA-stimulated human PBL assessed as lymphocyte transformation at 2 mM after 72 hrs by Giemsa staining method; assay type: functional
[2] = Antioxidant activity assessed as ABTS free radical scavenging activity by spectrophotometry; assay type: functional; parameters: concentration or dose not given beside the values
MCF7 [3] = assay: Cell cycle arrest in human MCF7 cells assessed as reduction in G2/M-phase accumulation at IC50 after 24 hrs by FACs analysis relative to untreated control; assay type: functional, cell-based
MCF7 [4] = assay: Cell cycle arrest in human MCF7 cells assessed as increase in G0/G1-phase accumulation at IC50 after 24 hrs by FACs analysis (reference value: 55.6+/-0.6 %); assay type: functional
MCF7 [5] = assay: Cell cycle arrest in human MCF7 cells assessed as reduction in S-phase accumulation at IC50 after 24 hrs by FACs analysis (reference value: 34.1+/-1.1 %); assay type: functional; parameters: scale not given: the % may be the effect or the level left
MCF7 [6] = assay: Cell cycle arrest in human MCF7 cells assessed as increase in G0/G1-phase accumulation at IC50 after 24 hrs by FACs analysis; assay type: functional, cell-based
MCF7 [7] = assay: Cell cycle arrest in human MCF7 cells assessed as reduction in S-phase accumulation at IC50 after 24 hrs by FACs analysis; assay type: functional, cell-based
MCF7 [8] = assay: Cell cycle arrest in human MCF7 cells assessed as increase in pre-G apoptotic fraction at IC50 after 24 hrs by FACs analysis relative to untreated control; assay type: functional, cell-based

Compound	IC50 (HepG2) [µM]	IC50 (WI-38) [µM]	IC50 (Vero) [µM]	IC50 (MCF7 [1]) [µM]	Activity (PBL) [%]	Activity [2] [%]	Activity (MCF7 [3])	Activity (MCF7 [4]) [%]	Activity (MCF7 [5]) [%]	Activity (MCF7 [6])	Activity (MCF7 [7])	Activity (MCF7 [8])
COc1cc(-c2cc(=O)c3c(O)cc(OC)c(OC)c3o2)cc(OC)c1OC	25	100	105	20	45	54.2						
COc1cc(-c2cc(=O)c3cc(OC)c(OC)c(O)c3o2)cc(O)c1OC	30	105	85	25	35	56.8						
COc1ccc(-c2oc3c(OC)c(OC)c(OC)c(O)c3c(=O)c2OC)cc1 [5-HYDROXYAURANETIN]	35	80	90	30	25	71.1						
C=C1C[C@]23CC[C@H]4C(CO)(CO)C(=O)CC[C@]4(C)[C@H]2CC[C@@H]1C3	50	90	90	40	10	34.3						
COc1ccc(-c2cc(=O)c3cc(OC)c(O)c(OC)c3o2)cc1OC	20	115	95	15	55	52.7	Active	73.4	15.6			
COc1ccc(-c2cc(=O)c3c(O)c(OC)c(OC)c(O)c3o2)cc1OC	45	95	100	35	15	78.3						
COc1ccc(-c2cc(=O)c3c(O)c(OC)c(OC)c(OC)c3o2)cc1 [GARDENIN B]	40	75	85	30	20	75.4						
O=C1O[C@H]([C@@H](O)CO)C(O)=C1O						80						
O=c1[nH]cc(F)c(=O)[nH]1 [FLUOROURACIL]	10	10	8							Active	Active	Active
COc1cc(O)c2c(=O)cc(-c3ccc(OC)c(OC)c3)oc2c1	15	105	125	10	65	45.8	Active	71.3	13			Active
